Our source for the mass density and viscosity values is the NIST ThermoML archive (doi:10.1021/je200350a).

For this data set the following is noted: 101.33 kPa, Liquid; for viscosity: Capillary tube (Ostwald / Ubbelohde) method.

Numbers after ± are expanded uncertainties.

What is called mass density is the mass of a sample divided by its volume. Broadly, the viscosity is the internal friction of a fluid under shear. For the compound `CCCCBr` [1-bromobutane], the mass density reads like this: (293.15 K) 1279.1 ± 1.5 kg/m3; (298.15 K) 1272.2 ± 1.4 kg/m3; (303.15 K) 1265.2 ± 1.4 kg/m3; (308.15 K) 1257.2 ± 1.4 kg/m3. Moreover, the viscosity runs as follows: (293.15 K) 0.6473 ± 0.0064 mPa·s; (298.15 K) 0.6096 ± 0.0061 mPa·s; (303.15 K) 0.5811 ± 0.0058 mPa·s; (308.15 K) 0.55 ± 0.0056 mPa·s.

As to `CC1CCCCC1` [methylcyclohexane], the mass density reads like this: (293.15 K) 770.1 ± 1.2 kg/m3; (298.15 K) 766.7 ± 1.2 kg/m3; (303.15 K) 761.8 ± 1.2 kg/m3; (308.15 K) 757.6 ± 1.2 kg/m3. Besides, the viscosity runs as follows: (293.15 K) 0.7293 ± 0.0071 mPa·s; (298.15 K) 0.6827 ± 0.0067 mPa·s; (303.15 K) 0.6385 ± 0.0063 mPa·s; (308.15 K) 0.5997 ± 0.006 mPa·s.

For `O=[N+]([O-])c1ccccc1` [nitrobenzene], the mass density runs as follows: (293.15 K) 1202.2 ± 1.2 kg/m3; (298.15 K) 1197.2 ± 1.2 kg/m3; (303.15 K) 1191.5 ± 1.2 kg/m3; (308.15 K) 1186.4 ± 1.2 kg/m3. Besides, the viscosity is, setting by setting: (293.15 K) 1.983 ± 0.018 mPa·s; (298.15 K) 1.809 ± 0.016 mPa·s; (303.15 K) 1.659 ± 0.015 mPa·s; (308.15 K) 1.529 ± 0.014 mPa·s.
